# Data reported in article PMC6162817 (Toxins, 2018).
# Values joined by “and” are separate entries in the source; they are usually repeats but may differ in a detail not shown here. Equal entries are not always repeated. Residues, ends and D or L forms follow the SMILES beside them. No end group written: not given here.
# Target: RTA depurination activity on rat liver ribosomes (Ricinus communis, UniProt P02879)
# Test: biochemical
# Format: biochemical
# Details: not given
Molecule,IC50,"Imax (maximal inhibition), rat ribosome"
SDDDMGFGLFD [P11],30.8 ± 6.3 µM,90% and 89.4 ± 4.2%
DDMGFGLFD [P9],142 ± 61 µM,–
DDDMGFGLFD [P10],83 ± 18 µM,–
"DMGFGLFD [P8, D108MGFGLFD115]",267 ± 80 µM,–

# Target: RTA depurination activity on yeast ribosomes (Ricinus communis, UniProt P02879)
# Test: biochemical
# Format: biochemical
# Details: not given
row,Molecule,"Imax (maximal inhibition), yeast ribosome"
1,SDDDMGFGLFD [P11],90% and 89.7 ± 3.0%

# Same assay, conditions: Yeast Ribosome IC50
row,Molecule,IC50
1,"FGLFD [P5, F111GLFD115]",121 ± 44 µM
2,SDDDMGFGLFD [P11],5 µM and 4.7 µM
3,DDMGFGLFD [P9],15 ± 1.5 µM
4,"GFGLFD [P6, G110FGLFD115]",63 ± 13 µM
5,"MGFGLFD [P7, M109GFGLFD115]",34 ± 9.5 µM
6,"CC(C)C[C@H](NC(=O)CN)C(=O)N[C@@H](Cc1ccccc1)C(=O)N[C@@H](CC(=O)O)C(=O)O [P4, G112LFD115] (H-GLFD-OH)",102 ± 45 µM
7,DDDMGFGLFD [P10],7.9 ± 1.7 µM
8,"DMGFGLFD [P8, D108MGFGLFD115]",23 ± 4.4 µM

# Target: RTA–yeast ribosome interaction (Ricinus communis, UniProt P02879)
# Test: not given
# Format: binding
# Details: not given
row,Molecule,inhibition of ribosome binding to RTA
1,"GFGLFD [P6, G110FGLFD115]",< 100%
